For orientation: IC50 means the concentration needed to halve the response being measured.

These results are taken from US20250026787A1, “PEPTIDES AND METHODS FOR REDUCING SKIN PIGMENTATION” (Glo Pharma, Inc., priority 2021, published 2025).

The target of the assay is T1, Human recombinant melanocortin MCI receptors (Homo sapiens, UniProt Q01726).
T1 construct: purchased Eurofins Discovery Item 251100; host or cells: CHO-K1
The assay is described as follows: MC1 Human Melanocortin GPCR Binding (Agonist Radioligand) competition assay (Eurofins Item 251100). The method, then: The binding of Group A MCIR peptide antagonists of the disclosure was evaluated in a competition assay (MC1 Human Melanocortin GPCR Binding (Agonist Radioligand) Assay, Item 251100, Eurofins Discovery). […] Human recombinant melanocortin MCI receptors were expressed in CHO-K1 cells in modified HEPES-KOH buffer pH 7.0. […] Non-specific binding was estimated in the presence of 1 μM NDP-α-MSH. Receptors were filtered and washed, and the filters counted to determine [^125I] NDP-α-MSH specifically bound. Peptide antagonists of the disclosure having amino acid sequences as set forth in SEQ ID NOS: 11, 16, 25, 27, 32, 35, and 40 (each having a C-terminal —NH2) were screened at five concentrations, as well as a positive control, SEQ ID NO: 1 (Melanostatine-5). Inhibition curves were obtained by determining the reduction of bound α-MSH in the presence of an amount of, and/or by increasing amounts of, each peptide antagonist. Non-specific binding of peptide was estimated separately in the presence of a vast excess (1 mM) of unlabeled α-MSH, which occupies all the available receptor binding sites. Based on the competitive binding curve, the IC50 values were determined (Eurofins or AAT Bioquest IC50 calculator). […] The binding of Group A MCIR peptide antagonists of the disclosure was evaluated in a competition assay (MC1 Human Melanocortin GPCR Binding (Agonist Radioligand) Assay, Item 251100, Eurofins Discovery). […] Human recombinant melanocortin MCI receptors were expressed in CHO-K1 cells in modified HEPES-KOH buffer pH 7.0. […] Non-specific binding was estimated in the presence of 1 μM NDP-α-MSH. Receptors were filtered and washed, and the filters counted to determine [^125I]NDP-α-MSH specifically bound. Peptide antagonists of the disclosure having amino acid sequences as set forth in SEQ ID NOS: 11, 16, 25, 27, 32, 35, and 40 were screened at five concentrations. Inhibition curves were obtained by determining the reduction of bound α-MSH in the presence of an amount of, and/or by increasing amounts of, each peptide antagonist. […] Based on the percent inhibition relative to the agonist the IC50 values were determined (Eurofins or AAT Bioquest IC50 calculator).

Setting [1] is: Example 7, Table 7, binned, screened at five concentrations, read-out: IC50.
Setting [2] is: stated as 'in some embodiments', broadest range, read-out: IC50 value using a competition assay.

Each structure is given as a SMILES string. Like-named read-outs stand apart in the source and are kept apart here. Square brackets hold non-standard residues; d marks the D form. Peptide text beside a SMILES is read from it. Where only a bound is given, the exact number is not on record here.

T1 sequence (Q01726 whole entry): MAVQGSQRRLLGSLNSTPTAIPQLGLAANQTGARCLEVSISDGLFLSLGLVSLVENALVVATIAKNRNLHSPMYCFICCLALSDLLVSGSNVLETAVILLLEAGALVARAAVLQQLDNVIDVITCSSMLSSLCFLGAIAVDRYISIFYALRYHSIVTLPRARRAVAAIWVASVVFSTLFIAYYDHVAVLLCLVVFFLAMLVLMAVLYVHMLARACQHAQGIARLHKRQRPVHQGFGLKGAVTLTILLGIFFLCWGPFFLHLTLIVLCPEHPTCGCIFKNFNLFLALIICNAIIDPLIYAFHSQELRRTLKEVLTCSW

For the compound `CSCC[C@H](N)C(=O)N1CCC[C@H]1C(=O)N[C@H](Cc1ccccc1)C(=O)N[C@@H](CCCNC(=N)N)C(=O)N[C@H](Cc1c[nH]c2ccccc12)C(=O)N[C@@H](Cc1ccccc1)C(=O)N[C@@H](CCCCN)C(=O)N1CCC[C@H]1C(=O)N[C@H](C(N)=O)C(C)C` [SEQ ID NO: 1, Met-Pro-D-Phe-Arg-D-Trp-Phe-Lys-Pro-Val, reference compound] (H-MP[dF]R[dW]FKPV-NH2), the 50% inhibitory concentration (IC50) is, setting by setting: (IC50, Example 7, Table 7, binned, screened at five concentrations) under 200 nM; (IC50 value, Example 1, competition with 0.04 nM [125I]NDP-α-MSH, 120 minutes at 37° C) 120 nM. Turning to `CC(C)[C@H](NC(=O)[C@@H]1CCCN1C(=O)[C@H](CCCCN)NC(=O)[C@H](Cc1ccccc1)NC(=O)[C@@H](Cc1c[nH]c2ccccc12)NC(=O)[C@H](CCCNC(=N)N)NC(=O)[C@@H](Cc1ccccc1)NC(=O)[C@@H](NC(=O)[C@H](C)N)C(C)C)C(N)=O` [SEQ ID NO: 11, Ala-Val-dPhe-Arg-dTrp-Phe-Lys-Pro-Val-NH2] (H-AV[dF]R[dW]FKPV-NH2), the IC50 under setting [1] was 200 to 500 nM.

Turning to `CC(C)[C@H](NC(=O)[C@@H]1CCCN1C(=O)[C@H](CCCCN)NC(=O)[C@H](Cc1ccccc1)NC(=O)[C@@H](Cc1c[nH]c2ccccc12)NC(=O)[C@H](CCCNC(=N)N)NC(=O)[C@@H](Cc1ccccc1)NC(=O)[C@@H](NC(=O)[C@@H](N)Cc1ccccc1)C(C)C)C(N)=O` [SEQ ID NO: 16, Phe-Val-dPhe-Arg-dTrp-Phe-Lys-Pro-Val-NH2] (H-FV[dF]R[dW]FKPV-NH2), the IC50 runs as follows: under setting [1], under 200 nM; under setting [2], 70 to 160 nM. Take `CC(C)[C@H](NC(=O)[C@@H]1CCCN1C(=O)[C@H](CCCCN)NC(=O)[C@H](Cc1ccccc1)NC(=O)[C@@H](Cc1c[nH]c2ccccc12)NC(=O)[C@H](CCCNC(=N)N)NC(=O)[C@@H](Cc1ccccc1)NC(=O)[C@@H](NC(=O)[C@@H](N)CCC(=O)O)C(C)C)C(N)=O` [SEQ ID NO: 25, Glu-Val-dPhe-Arg-dTrp-Phe-Lys-Pro-Val-NH2] (H-EV[dF]R[dW]FKPV-NH2): the IC50 under setting [1] was over 500 nM.

As to `CSCC[C@H](N)C(=O)N[C@H](C(=O)N[C@@H](Cc1ccccc1)C(=O)N[C@@H](CCCNC(=N)N)C(=O)N[C@H](Cc1c[nH]c2ccccc12)C(=O)N[C@@H](Cc1ccccc1)C(=O)N[C@@H](CCCCN)C(=O)N1CCC[C@H]1C(=O)N[C@H](C(N)=O)C(C)C)C(C)C` [SEQ ID NO: 27, Met-Val-Phe-Arg-dTrp-Phe-Lys-Pro-Val-NH2] (H-MVFR[dW]FKPV-NH2), the IC50 under setting [1] was over 500 nM.

`CC[C@H](C)[C@H](N)C(=O)N[C@@H](Cc1ccccc1)C(=O)N[C@@H](CCCNC(=N)N)C(=O)N[C@H](Cc1c[nH]c2ccccc12)C(=O)N[C@@H](Cc1ccccc1)C(=O)N[C@@H](CCCCN)C(=O)N1CCC[C@H]1C(=O)N[C@H](C(N)=O)C(C)C` [SEQ ID NO: 32, Ile-Phe-Arg-dTrp-Phe-Lys-Pro-Val-NH2] (H-IFR[dW]FKPV-NH2): the 50% inhibitory concentration (IC50) runs as follows: under setting [1], under 200 nM; under setting [2], 70 to 160 nM. For the compound `CSCC[C@H](N)C(=O)N[C@H](C(=O)N[C@H](Cc1ccccc1)C(=O)N[C@H](CCCNC(=N)N)C(=O)N[C@H](Cc1c[nH]c2ccccc12)C(=O)N[C@@H](Cc1ccccc1)C(=O)N[C@@H](CCCCN)C(=O)N1CCC[C@H]1C(=O)N[C@H](C(N)=O)C(C)C)C(C)C` [SEQ ID NO: 35, Met-Val-dPhe-dArg-dTrp-Phe-Lys-Pro-Val-NH2] (H-MV[dF][dR][dW]FKPV-NH2), under setting [1], the half-inhibitory concentration (IC50) is over 500 nM. As for `CC(C)C[C@@H](NC(=O)[C@H](C)N)C(=O)N[C@H](Cc1ccccc1)C(=O)N[C@@H](CCCNC(=N)N)C(=O)N[C@H](Cc1c[nH]c2ccccc12)C(=O)N[C@@H](Cc1ccccc1)C(=O)N[C@@H](CCCCN)C(=O)N1CCC[C@H]1C(=O)N[C@H](C(N)=O)C(C)C` [SEQ ID NO: 40, Ala-dLeu-dPhe-Arg-dTrp-Phe-Lys-Pro-Val-NH2] (H-A[dL][dF]R[dW]FKPV-NH2), the IC50 under setting [1] is over 500 nM.
